Experimental data: patent publication US20260232767A1, “INTERLEUKIN-23 RECEPTOR ANTAGONIST PEPTIDES FOR USE IN THE TREATMENT OF PSORIASIS” (Janssen Pharmaceutica NV, priority 2023, published 2026)

System: subjects with moderate-to-severe plaque psoriasis
Assay: Hematology and chemistry laboratory values by CTCAE grade
Type: in vivo, human
Conditions: through Week 56
Excerpt: The proportion of participants who discontinued study intervention due to one or more AEs was low (n=4). All events were singular in nature with no apparent dose-dependent increase (Table 48 and Table 52). The number of participants with abnormal hematology and chemistry laboratory values with CTCAE toxicity grade≥3 were low through the end of the study (Table 43 through Table 46). There was no apparent dose-dependent increase in laboratory abnormality occurrences.

Structure (SMILES): CC(=O)NCCCC[C@@H]1NC(=O)[C@H](Cc2c[nH]c3c(C)cccc23)NC(=O)[C@H]([C@@H](C)O)NC(=O)[C@H](CC(N)=O)NC(=O)[C@@H](NC(C)=O)C(C)(C)SSC(C)(C)[C@@H](C(=O)N[C@@H](Cc2ccc(OCCN)cc2)C(=O)N[C@@H](Cc2ccc3ccccc3c2)C(=O)NC2(C(=O)N[C@@H](CCC(=O)O)C(=O)N[C@@H](CC(N)=O)C(=O)N[C@@H](Cc3cccnc3)C(=O)N(C)CC(N)=O)CCOCC2)NC1=O [IL-23 receptor antagonist peptide, Ac-[Pen]*-N-T-[W(7-Me)]-[Lys(Ac)]-[Pen]*-Phe[4-(2-aminoethoxy)]-[2-Nal]-[THP]-E-N-[3-Pal]-Sarc-NH2 (*[Pen]-[Pen]* formdisulfidebond)]
- Platelets (×10^9/L) (decreased): subjects with Grade 1 (25 mg QD): 5
- Platelets (×10^9/L) (decreased): subjects with Grade 2 (25 mg QD): 0
- Platelets (×10^9/L) (decreased): subjects with Grade 3 (25 mg QD): 0
- Platelets (×10^9/L) (decreased): subjects with Grade 4 (25 mg QD): 0
- Platelets (×10^9/L) (decreased): subjects with postbaseline maximum toxicity grade >0 (25 mg QD): 5
- Potassium (decreased): Subjects with Grade 1 (25 mg QD): 0
- Potassium (decreased): Subjects with Grade 2 (25 mg QD): 0
- Potassium (decreased): Subjects with Grade 3 (25 mg QD): 0
- Potassium (decreased): Subjects with Grade 4 (25 mg QD): 0
- Potassium (decreased): Subjects with postbaseline maximum toxicity grade >0 (25 mg QD): 0
- Potassium (increased): Subjects with Grade 3 (25 mg QD): 0
- Potassium (increased): Subjects with Grade 4 (25 mg QD): 0
- Potassium (increased): Subjects with postbaseline maximum toxicity grade >0 (25 mg QD): 7
- Sodium (decreased): Subjects with Grade 2 (25 mg QD): 0
- Sodium (decreased): Subjects with Grade 3 (25 mg QD): 0
- Sodium (decreased): Subjects with Grade 4 (25 mg QD): 0
- Sodium (increased): Subjects with Grade 2 (25 mg QD): 0
- Sodium (increased): Subjects with Grade 3 (25 mg QD): 0
- Sodium (increased): Subjects with Grade 4 (25 mg QD): 0
- Total Bilirubin (increased): Subjects with Grade 2 (25 mg QD): 0
- Total Bilirubin (increased): Subjects with Grade 3 (25 mg QD): 0
- Total Bilirubin (increased): Subjects with Grade 4 (25 mg QD): 0
- Triglycerides (increased): Subjects with Grade 4 (25 mg QD): 0
- WBC (×10^9/L) (decreased): subjects with Grade 2 (25 mg QD): 0
- WBC (×10^9/L) (decreased): subjects with Grade 3 (25 mg QD): 0
- WBC (×10^9/L) (decreased): subjects with Grade 4 (25 mg QD): 0
- WBC (×10^9/L) (increased): subjects with Grade 1 (25 mg QD): 0
- WBC (×10^9/L) (increased): subjects with Grade 2 (25 mg QD): 0
- WBC (×10^9/L) (increased): subjects with Grade 3 (25 mg QD): 0
- WBC (×10^9/L) (increased): subjects with Grade 4 (25 mg QD): 0
- WBC (×10^9/L) (increased): subjects with postbaseline maximum toxicity grade >0 (25 mg QD): 0
- Alanine Aminotransferase (increased): Subjects with Grade 2 (50 mg QD): 0
- Alanine Aminotransferase (increased): Subjects with Grade 3 (50 mg QD): 0
- Alanine Aminotransferase (increased): Subjects with Grade 4 (50 mg QD): 0
- Albumin (decreased): Subjects with Grade 1 (50 mg QD): 0
- Albumin (decreased): Subjects with Grade 2 (50 mg QD): 0
- Albumin (decreased): Subjects with Grade 3 (50 mg QD): 0
- Albumin (decreased): Subjects with Grade 4 (50 mg QD): 0
- Albumin (decreased): Subjects with postbaseline maximum toxicity grade >0 (50 mg QD): 0
- Alkaline Phosphatase (increased): Subjects with Grade 2 (50 mg QD): 0
- Alkaline Phosphatase (increased): Subjects with Grade 3 (50 mg QD): 0
- Alkaline Phosphatase (increased): Subjects with Grade 4 (50 mg QD): 0
- Aspartate Aminotransferase (increased): Subjects with Grade 2 (50 mg QD): 0
- Aspartate Aminotransferase (increased): Subjects with Grade 3 (50 mg QD): 0
- Aspartate Aminotransferase (increased): Subjects with Grade 4 (50 mg QD): 0
- Calcium corrected (decreased): Subjects with Grade 2 (50 mg QD): 0
- Calcium corrected (decreased): Subjects with Grade 3 (50 mg QD): 0
- Calcium corrected (decreased): Subjects with Grade 4 (50 mg QD): 0
- Calcium corrected (increased): Subjects with Grade 1 (50 mg QD): 0
- Calcium corrected (increased): Subjects with Grade 2 (50 mg QD): 0
- Calcium corrected (increased): Subjects with Grade 3 (50 mg QD): 0
- Calcium corrected (increased): Subjects with Grade 4 (50 mg QD): 0
- Calcium corrected (increased): Subjects with postbaseline maximum toxicity grade >0 (50 mg QD): 0
- Cholesterol (increased): Subjects with Grade 2 (50 mg QD): 0
- Cholesterol (increased): Subjects with Grade 3 (50 mg QD): 0
- Cholesterol (increased): Subjects with Grade 4 (50 mg QD): 0
- Creatine Kinase (increased): Subjects with Grade 3 (50 mg QD): 0
- Creatinine (increased): Subjects with Grade 2 (50 mg QD): 0
- Creatinine (increased): Subjects with Grade 3 (50 mg QD): 0
- Creatinine (increased): Subjects with Grade 4 (50 mg QD): 0
- Gamma Glutamyl Transferase (increased): Subjects with Grade 2 (50 mg QD): 0
- Gamma Glutamyl Transferase (increased): Subjects with Grade 3 (50 mg QD): 0
- Gamma Glutamyl Transferase (increased): Subjects with Grade 4 (50 mg QD): 0
- Glucose (decreased): Subjects with Grade 2 (50 mg QD): 0
- Glucose (decreased): Subjects with Grade 3 (50 mg QD): 0
- Glucose (decreased): Subjects with Grade 4 (50 mg QD): 0
- Hemoglobin (g/L) (decreased): subjects with Grade 3 (50 mg QD): 0
- Hemoglobin (g/L) (decreased): subjects with Grade 4 (50 mg QD): 0
- Hemoglobin (g/L) (decreased): subjects with postbaseline maximum toxicity grade >0 (50 mg QD): 5
- Hemoglobin (g/L) (increased): subjects with Grade 1 (50 mg QD): 0
- Hemoglobin (g/L) (increased): subjects with Grade 2 (50 mg QD): 0
- Hemoglobin (g/L) (increased): subjects with Grade 3 (50 mg QD): 0
- Hemoglobin (g/L) (increased): subjects with Grade 4 (50 mg QD): 0
- Hemoglobin (g/L) (increased): subjects with postbaseline maximum toxicity grade >0 (50 mg QD): 0
- Lymphocytes (×10^9/L) (decreased): subjects with Grade 3 (50 mg QD): 0
- Lymphocytes (×10^9/L) (decreased): subjects with Grade 4 (50 mg QD): 0
- Lymphocytes (×10^9/L) (increased): subjects with Grade 1 (50 mg QD): 0
- Lymphocytes (×10^9/L) (increased): subjects with Grade 2 (50 mg QD): 0
- Lymphocytes (×10^9/L) (increased): subjects with Grade 3 (50 mg QD): 0
- Lymphocytes (×10^9/L) (increased): subjects with Grade 4 (50 mg QD): 0
- Lymphocytes (×10^9/L) (increased): subjects with postbaseline maximum toxicity grade >0 (50 mg QD): 0
- Magnesium (decreased): Subjects with Grade 1 (50 mg QD): 0
- Magnesium (decreased): Subjects with Grade 2 (50 mg QD): 0
- Magnesium (decreased): Subjects with Grade 3 (50 mg QD): 0
- Magnesium (decreased): Subjects with Grade 4 (50 mg QD): 0
- Magnesium (decreased): Subjects with postbaseline maximum toxicity grade >0 (50 mg QD): 0
- Magnesium (increased): Subjects with Grade 2 (50 mg QD): 0
- Magnesium (increased): Subjects with Grade 3 (50 mg QD): 0
- Magnesium (increased): Subjects with Grade 4 (50 mg QD): 0
- Neutrophils (×10^9/L) (decreased): subjects with Grade 3 (50 mg QD): 0
- Neutrophils (×10^9/L) (decreased): subjects with Grade 4 (50 mg QD): 0
- Platelets (×10^9/L) (decreased): subjects with Grade 1 (50 mg QD): 0
- Platelets (×10^9/L) (decreased): subjects with Grade 2 (50 mg QD): 0
- Platelets (×10^9/L) (decreased): subjects with Grade 3 (50 mg QD): 0
- Platelets (×10^9/L) (decreased): subjects with Grade 4 (50 mg QD): 0
- Platelets (×10^9/L) (decreased): subjects with postbaseline maximum toxicity grade >0 (50 mg QD): 0
- Potassium (decreased): Subjects with Grade 1 (50 mg QD): 0
- Potassium (decreased): Subjects with Grade 2 (50 mg QD): 0
- Potassium (decreased): Subjects with Grade 3 (50 mg QD): 0
- Potassium (decreased): Subjects with Grade 4 (50 mg QD): 0
- Potassium (decreased): Subjects with postbaseline maximum toxicity grade >0 (50 mg QD): 0
- Potassium (increased): Subjects with Grade 2 (50 mg QD): 0
- Potassium (increased): Subjects with Grade 4 (50 mg QD): 0
- Sodium (decreased): Subjects with Grade 1 (50 mg QD): 0
- Sodium (decreased): Subjects with Grade 2 (50 mg QD): 0
- Sodium (decreased): Subjects with Grade 3 (50 mg QD): 0
- Sodium (decreased): Subjects with Grade 4 (50 mg QD): 0
- Sodium (decreased): Subjects with postbaseline maximum toxicity grade >0 (50 mg QD): 0
- Sodium (increased): Subjects with Grade 1 (50 mg QD): 0
- Sodium (increased): Subjects with Grade 2 (50 mg QD): 0
- Sodium (increased): Subjects with Grade 3 (50 mg QD): 0
- Sodium (increased): Subjects with Grade 4 (50 mg QD): 0
- Sodium (increased): Subjects with postbaseline maximum toxicity grade >0 (50 mg QD): 0
- Total Bilirubin (increased): Subjects with Grade 3 (50 mg QD): 0
- Total Bilirubin (increased): Subjects with Grade 4 (50 mg QD): 0
- Total Bilirubin (increased): Subjects with postbaseline maximum toxicity grade >0 (50 mg QD): 5
- Triglycerides (increased): Subjects with Grade 1 (50 mg QD): 0
- Triglycerides (increased): Subjects with Grade 4 (50 mg QD): 0
- WBC (×10^9/L) (decreased): subjects with Grade 3 (50 mg QD): 0
- WBC (×10^9/L) (decreased): subjects with Grade 4 (50 mg QD): 0
- WBC (×10^9/L) (increased): subjects with Grade 1 (50 mg QD): 0
- WBC (×10^9/L) (increased): subjects with Grade 2 (50 mg QD): 0
- WBC (×10^9/L) (increased): subjects with Grade 3 (50 mg QD): 0
- WBC (×10^9/L) (increased): subjects with Grade 4 (50 mg QD): 0
- WBC (×10^9/L) (increased): subjects with postbaseline maximum toxicity grade >0 (50 mg QD): 0
- Alanine Aminotransferase (increased): Subjects with Grade 1 (100 mg BID): 10
- Alanine Aminotransferase (increased): Subjects with Grade 3 (100 mg BID): 0
- Alanine Aminotransferase (increased): Subjects with Grade 4 (100 mg BID): 0
- Albumin (decreased): Subjects with Grade 1 (100 mg BID): 0
- Albumin (decreased): Subjects with Grade 2 (100 mg BID): 0
- Albumin (decreased): Subjects with Grade 3 (100 mg BID): 0
- Albumin (decreased): Subjects with Grade 4 (100 mg BID): 0
- Albumin (decreased): Subjects with postbaseline maximum toxicity grade >0 (100 mg BID): 0
- Alkaline Phosphatase (increased): Subjects with Grade 1 (100 mg BID): 0
- Alkaline Phosphatase (increased): Subjects with Grade 2 (100 mg BID): 0
- Alkaline Phosphatase (increased): Subjects with Grade 3 (100 mg BID): 0
- Alkaline Phosphatase (increased): Subjects with Grade 4 (100 mg BID): 0
- Alkaline Phosphatase (increased): Subjects with postbaseline maximum toxicity grade >0 (100 mg BID): 0
- Aspartate Aminotransferase (increased): Subjects with Grade 1 (100 mg BID): 7
- Aspartate Aminotransferase (increased): Subjects with Grade 4 (100 mg BID): 0
- Aspartate Aminotransferase (increased): Subjects with postbaseline maximum toxicity grade >0 (100 mg BID): 9
- Calcium corrected (decreased): Subjects with Grade 3 (100 mg BID): 0
- Calcium corrected (decreased): Subjects with Grade 4 (100 mg BID): 0
- Calcium corrected (increased): Subjects with Grade 1 (100 mg BID): 0
- Calcium corrected (increased): Subjects with Grade 2 (100 mg BID): 0
- Calcium corrected (increased): Subjects with Grade 3 (100 mg BID): 0
- Calcium corrected (increased): Subjects with Grade 4 (100 mg BID): 0
- Calcium corrected (increased): Subjects with postbaseline maximum toxicity grade >0 (100 mg BID): 0
- Cholesterol (increased): Subjects with Grade 2 (100 mg BID): 0
- Cholesterol (increased): Subjects with Grade 3 (100 mg BID): 0
- Cholesterol (increased): Subjects with Grade 4 (100 mg BID): 0
